Our source for the inhibition values is patent EP0012161A1, “Application of 0-(2-nitro-4-methyl-phenyl)-0-methyl-N-isopropyl-phosphoroamido-thioat for inhibition of side growth of tobacco-plants” (BAYER AG, priority 1978, dated 1980).

Assay type in all cases: in vivo
Assay [1] has as its system Alnus glutinosa. The assay can be described thus: Growth inhibition in woody plants (Alnus glutinosa), greenhouse spray test. Particulars: 1008 h, one-year seedlings sprayed to run-off, increase in growth measured after 6 weeks, 100 % = growth standstill, 0 % = growth as control, read-out: Wuchshemmung in %. From the text:
(§1) Lösungsmittel : 30 Gewichtsteile Dimethylformamid Emulgator: 1 Gewichtsteil Polyoxyethylen-SorbitanMonolaurat
(§2) Zur Herstellung einer zweckmäßigen Wirkstoffzubereitung vermischt man 1 Gewichtsteil Wirkstoff mit den angegebenen Mengen Lösungsmittel und Emulgator und füllt mit Wasser auf die gewünschte Konzentration auf.
(§3) Einjährige Sämlinge mit einer Wuchshöhe von 25 cm werden mit den Wirkstoffzubereitungen bis zum Abtropfen besprüht. Nach 6 Wochen Wachstum im Gewächshaus wird der Zuwachs gemessen und die Wuchshemmung in Prozent des Zuwachses der Kontrollpflanzen berechnet. 100 % bedeuten den Stillstand des Wachstums und 0 % ein Wachstum entsprechend dem der Kontrollpflanzen.

In assay [2] the test system is Acer pseudoplatanus. Nature of the assay: Growth inhibition in woody plants (Acer pseudoplatanus), greenhouse spray test. Particulars: 1008 h, one-year seedlings sprayed to run-off, increase in growth measured after 6 weeks, 100 % = growth standstill, 0 % = growth as control, read-out: Wuchshemmung in %.
Description: as §1, §2, §3

The subject of assay [3] is Tabak. The assay can be described thus: Inhibition of side shoot growth in tobacco, greenhouse spray test after decapitation. Particulars: 504 h, decapitated plants sprayed to run-off, weight of side shoots after 3 weeks versus control, 100 % = no side shoots, read-out: Wuchshemmung in %. An excerpt:
Lösungsmittel: 30 Gewichtsteile Dimethylformamid Emulgator: 1 Gewichtsteil Polyoxyethylensorbitan-Monolaurat
Zur Herstellung einer zweckmäßigen Wirkstoffzubereitung vermischt man 1 Gewichsteil Wirkstoff mit den angegebenen Mengen Lösungsmittel und.Emulgator und füllt mit Wasser auf die gewünschte Konzentration auf.
Tabakpflanzen werden im Gewächshaus bis zur Entfaltung des 7. Laubblattes angezogen. In diesem Stadium wird die apikale Vegetationsspitze der Pflanzen entfernt und die Pflanzen werden bis zum Abtropfen mit den Wirkstoffzubereitungen besprüht. Nach 3 Wochen werden die Seitentriebe der Pflanzen herausgebrochen und gewogen. Das Gewicht der Seitentriebe der behandelten Pflanzen wird mit dem der Kontrollpflanzen verglichen. 100 % Hemmung bedeutet das Fehlen von Seitentrieben und 0 t ein Wachstum der Seitentriebe entsprechend dem der Kontrollpflanzen.

Assay [4] concerns Weizen. Nature of the assay: Growth inhibition in wheat, greenhouse spray test. Particulars: 504 h; active compound concentration 0,05 %; plants at 2-leaf stage sprayed dripping wet; increase in growth measured after 3 weeks; 100 = growth standstill; read-out: Wuchshemmung in %.
Description: (§4) Lösungsmittel: 30 Gewichtsteile Dimethylformamid Emulgator: 1 Gewichtsteil Polyoxyethylen-SorbitanMonolaurat
as §2
Weizenpflanzen werden im Gewächshaus bis zum 2-BlattStadium angezogen. In diesem Stadium werden die Pflanzen tropfnaß mit den Wirkstoffzubereitungen besprüht. Nach 3 Wochen wird bei allen Pflanzen der Zuwachs gemessen und die Wuchshemmung in % des Zuwachses der Kontrollpflanzen berechnet. Es bedeuten 100 t den Stillstand des Wachstums und 0 % ein Wachstum entsprechend dem der Kontrollpflanzen.

For assay [5], the system named is Sojabohnen. The assay can be described thus: Growth inhibition in soybeans, greenhouse spray test. Particulars: 504 h; active compound concentration 0,05 %; plants with first trifoliate leaf unfolded sprayed dripping wet; increase in growth measured after 3 weeks; 100 % = growth standstill; read-out: Wuchshemmung in %.
Description: as §4, §2
Sojabohnenpflanzen werden im Gewächshaus bis zur vollen Entfaltung des ersten Folgeblattes angezogen. In diesem Stadium werden die Pflanzen tropfnaß mit den Wirkstoffzubereitungen besprüht. Nach 3 Wochen wird bei allen Pflanzen der Zuwachs gemessen und die Wuchshemmung in % des Zuwachses der Kontrollpflanzen berechnet. Es bedeuten 100 % den Stillstand des Wachstums und O % ein Wachstum entsprechend dem der Kontrollpflanzen.

[6] abbreviates: active compound concentration 0,1 %.
The mark [7] stands for this setting: active compound concentration 0,4 %.

Take `COP(=S)(NC(C)C)Oc1ccc(C)cc1[N+](=O)[O-]` (stereo not drawn): the inhibition at 0.1 % in assay [1] (setting [6]) was 50%; in assay [2] (setting [6]) it was 65%. Moreover, the inhibition at 0.4 % in assay [1] (setting [7]) stood at 75%; in assay [2] (setting [7]), 83%; in assay [3] (setting [7]) it was 99%. Besides, the inhibition at 0.2 % in assay [3] (active compound concentration 0,2 %) stood at 92%. Moreover, in assay [3] (active compound concentration 0,6 %), the inhibition at 0.6 % was found to be 99%. The inhibition at 0.05 % came out at 35% in assay [4] and 80% in assay [5].
